Results published in PubChem BioAssay (NCI).
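Assay format: 96-well plates, 48-hour exposure. Abbreviation: GI50, concentration required for 50% inhibition of growth. At the TGI there is no net growth.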

What was measured:
Assay in all cases: NCI-60 cell line screen, 48 h
786-0 renal = tested on: 786-0 renal
A498 renal = tested on: A498 renal
A549 NSCLC = tested on: A549 NSCLC
ACHN renal = tested on: ACHN renal
CAKI-1 renal = tested on: CAKI-1 renal
COLO 205 colon = tested on: COLO 205 colon
DU-145 prostate = tested on: DU-145 prostate
EKVX NSCLC = tested on: EKVX NSCLC
HCC-2998 colon = tested on: HCC-2998 colon
HCT-116 colon = tested on: HCT-116 colon
HCT-15 colon = tested on: HCT-15 colon
HL-60(TB) leukemia = tested on: HL-60(TB) leukemia
HOP-62 NSCLC = tested on: HOP-62 NSCLC
HOP-92 NSCLC = tested on: HOP-92 NSCLC
HS 578T breast = tested on: HS 578T breast
HT29 colon = tested on: HT29 colon
IGROV1 ovarian = tested on: IGROV1 ovarian
K-562 leukemia = tested on: K-562 leukemia
KM12 colon = tested on: KM12 colon
LOX IMVI melanoma = tested on: LOX IMVI melanoma
M14 melanoma = tested on: M14 melanoma
MALME-3M melanoma = tested on: MALME-3M melanoma
MCF7 breast = tested on: MCF7 breast
MDA-MB-231 breast = tested on: MDA-MB-231 breast
MDA-MB-435 = tested on: MDA-MB-435
MOLT-4 leukemia = tested on: MOLT-4 leukemia
NCI-H226 lung = tested on: NCI-H226 lung
NCI-H23 lung = tested on: NCI-H23 lung
NCI-H460 lung = tested on: NCI-H460 lung
NCI-H522 lung = tested on: NCI-H522 lung
NCI/ADR-RES ovarian = tested on: NCI/ADR-RES ovarian
OVCAR-3 ovarian = tested on: OVCAR-3 ovarian
OVCAR-4 ovarian = tested on: OVCAR-4 ovarian
OVCAR-5 ovarian = tested on: OVCAR-5 ovarian
OVCAR-8 ovarian = tested on: OVCAR-8 ovarian
PC-3 prostate = tested on: PC-3 prostate
RPMI-8226 leukemia = tested on: RPMI-8226 leukemia
RXF 393 renal = tested on: RXF 393 renal
SF-268 CNS = tested on: SF-268 CNS
SF-295 CNS = tested on: SF-295 CNS
SF-539 CNS = tested on: SF-539 CNS
SK-MEL-2 melanoma = tested on: SK-MEL-2 melanoma
SK-MEL-28 melanoma = tested on: SK-MEL-28 melanoma
SK-MEL-5 melanoma = tested on: SK-MEL-5 melanoma
SK-OV-3 ovarian = tested on: SK-OV-3 ovarian
SN12C renal = tested on: SN12C renal
SNB-19 CNS = tested on: SNB-19 CNS
SNB-75 CNS = tested on: SNB-75 CNS
SW-620 colon = tested on: SW-620 colon
T-47D breast = tested on: T-47D breast
TK-10 renal = tested on: TK-10 renal
U251 CNS = tested on: U251 CNS
UACC-257 melanoma = tested on: UACC-257 melanoma
UACC-62 melanoma = tested on: UACC-62 melanoma
UO-31 renal = tested on: UO-31 renal
BT-549 breast = tested on: BT-549 breast
CCRF-CEM leukemia = tested on: CCRF-CEM leukemia
SR leukemia = tested on: SR leukemia

## COc1cc2c3c(n(CCCNC(=O)OCC4c5ccccc5-c5ccccc54)c(=O)c2cc1OC)-c1cc2c(cc1C3=O)OCO2
786-0 renal
  GI50: 37.7 µM
  TGI: > 100 µM
A498 renal
  GI50: 24.9 µM
  TGI: > 100 µM
A549 NSCLC
  GI50: > 100 µM
  TGI: > 100 µM
ACHN renal
  GI50: 0.376 µM
  TGI: 6.25 µM
CAKI-1 renal
  GI50: 4.05 µM
  TGI: > 100 µM
COLO 205 colon
  GI50: > 100 µM
  TGI: > 100 µM
DU-145 prostate
  GI50: > 100 µM
  TGI: > 100 µM
EKVX NSCLC
  GI50: > 100 µM
  TGI: > 100 µM
HCC-2998 colon
  GI50: > 100 µM
  TGI: > 100 µM
HCT-116 colon
  GI50: 13.8 µM
  TGI: > 100 µM
HCT-15 colon
  GI50: > 63.2 µM
  TGI: > 100 µM
HL-60(TB) leukemia
  GI50: > 81.2 µM
  TGI: > 100 µM
HOP-62 NSCLC
  GI50: 13.7 µM
  TGI: > 74 µM
HOP-92 NSCLC
  GI50: 48.8 µM
  TGI: > 100 µM
HS 578T breast
  GI50: 22.8 µM
  TGI: > 100 µM
HT29 colon
  GI50: > 100 µM
  TGI: > 100 µM
IGROV1 ovarian
  GI50: > 100 µM
  TGI: > 100 µM
K-562 leukemia
  GI50: > 79.4 µM
  TGI: > 100 µM
KM12 colon
  GI50: > 100 µM
  TGI: > 100 µM
LOX IMVI melanoma
  GI50: 1.48 µM
  TGI: > 37.1 µM
M14 melanoma
  GI50: 36.8 µM
  TGI: > 100 µM
MALME-3M melanoma
  GI50: 93.3 µM
  TGI: > 100 µM
MCF7 breast
  GI50: 7.62 µM
  TGI: > 100 µM
MDA-MB-231 breast
  GI50: 15.9 µM
  TGI: > 74.2 µM
MDA-MB-435
  GI50: > 100 µM
  TGI: > 100 µM
MOLT-4 leukemia
  GI50: 8.07 µM
  TGI: > 34.6 µM
NCI-H226 lung
  GI50: > 100 µM
  TGI: > 100 µM
NCI-H23 lung
  GI50: > 64.1 µM
  TGI: > 100 µM
NCI-H460 lung
  GI50: 2.57 µM
  TGI: > 100 µM
NCI-H522 lung
  GI50: 34.9 µM
  TGI: > 100 µM
NCI/ADR-RES ovarian
  GI50: > 100 µM
  TGI: > 100 µM
OVCAR-3 ovarian
  GI50: > 100 µM
  TGI: > 100 µM
OVCAR-4 ovarian
  GI50: > 100 µM
  TGI: > 100 µM
OVCAR-5 ovarian
  GI50: > 100 µM
  TGI: > 100 µM
OVCAR-8 ovarian
  GI50: > 93.6 µM
  TGI: > 100 µM
PC-3 prostate
  GI50: > 100 µM
  TGI: > 100 µM
RPMI-8226 leukemia
  GI50: > 28.3 µM
  TGI: > 100 µM
RXF 393 renal
  GI50: 20.1 µM
  TGI: > 73.9 µM
SF-268 CNS
  GI50: 16.6 µM
  TGI: > 72.4 µM
SF-295 CNS
  GI50: 0.751 µM
  TGI: > 100 µM
SF-539 CNS
  GI50: 7.25 µM
  TGI: 31.2 µM
SK-MEL-2 melanoma
  GI50: 45.5 µM
  TGI: > 100 µM
SK-MEL-28 melanoma
  GI50: > 100 µM
  TGI: > 100 µM
SK-MEL-5 melanoma
  GI50: 28.2 µM
  TGI: > 100 µM
SK-OV-3 ovarian
  GI50: > 64.7 µM
  TGI: > 100 µM
SN12C renal
  GI50: > 100 µM
  TGI: > 100 µM
SNB-19 CNS
  GI50: > 76.4 µM
  TGI: > 100 µM
SNB-75 CNS
  GI50: 34.8 µM
  TGI: > 86.4 µM
SW-620 colon
  GI50: > 100 µM
  TGI: > 100 µM
T-47D breast
  GI50: > 100 µM
  TGI: > 100 µM
TK-10 renal
  GI50: > 56.2 µM
  TGI: > 100 µM
U251 CNS
  GI50: 1.67 µM
  TGI: > 87.6 µM
UACC-257 melanoma
  GI50: > 100 µM
  TGI: > 100 µM
UACC-62 melanoma
  GI50: 33.4 µM
  TGI: > 61.2 µM
UO-31 renal
  GI50: > 100 µM
  TGI: > 100 µM

## CC1(C)N=C(N)N=C(N)N1c1ccc(OCC(=O)N2CCOCC2)c(Cl)c1
786-0 renal
  GI50: 20.2 µM
  TGI: > 100 µM
A498 renal
  GI50: > 100 µM
  TGI: > 100 µM
A549 NSCLC
  GI50: 0.271 µM
  TGI: > 100 µM
ACHN renal
  GI50: > 100 µM
  TGI: > 100 µM
BT-549 breast
  GI50: 14.8 µM
  TGI: > 100 µM
CCRF-CEM leukemia
  GI50: 3.55 µM
  TGI: > 100 µM
COLO 205 colon
  GI50: 8.8 µM
  TGI: > 100 µM
DU-145 prostate
  GI50: 0.994 µM
  TGI: > 100 µM
EKVX NSCLC
  GI50: 2.29 µM
  TGI: > 100 µM
HCC-2998 colon
  GI50: 9.78 µM
  TGI: > 100 µM
HCT-116 colon
  GI50: 0.667 µM
  TGI: > 100 µM
HCT-15 colon
  GI50: > 100 µM
  TGI: > 100 µM
HL-60(TB) leukemia
  GI50: 0.981 µM
  TGI: > 100 µM
HOP-62 NSCLC
  GI50: 12.2 µM
  TGI: > 100 µM
HOP-92 NSCLC
  GI50: > 100 µM
  TGI: > 100 µM
HT29 colon
  GI50: 0.66 µM
  TGI: > 100 µM
IGROV1 ovarian
  GI50: 0.379 µM
  TGI: 12.9 µM
K-562 leukemia
  GI50: 0.854 µM
  TGI: > 100 µM
KM12 colon
  GI50: 4.7 µM
  TGI: > 100 µM
LOX IMVI melanoma
  GI50: 0.545 µM
  TGI: > 100 µM
M14 melanoma
  GI50: 4.19 µM
  TGI: > 100 µM
MALME-3M melanoma
  GI50: 6.17 µM
  TGI: > 100 µM
MCF7 breast
  GI50: 1.36 µM
  TGI: > 100 µM
MDA-MB-231 breast
  GI50: > 100 µM
  TGI: > 100 µM
MDA-MB-435
  GI50: 0.565 µM
  TGI: > 100 µM
MOLT-4 leukemia
  GI50: 6.31 µM
  TGI: > 100 µM
NCI-H226 lung
  GI50: 33.5 µM
  TGI: > 100 µM
NCI-H23 lung
  GI50: 1.5 µM
  TGI: > 100 µM
NCI-H460 lung
  GI50: 0.362 µM
  TGI: > 100 µM
NCI-H522 lung
  GI50: 2.24 µM
  TGI: > 100 µM
NCI/ADR-RES ovarian
  GI50: > 100 µM
  TGI: > 100 µM
OVCAR-3 ovarian
  GI50: 5.63 µM
  TGI: > 100 µM
OVCAR-4 ovarian
  GI50: > 100 µM
  TGI: > 100 µM
OVCAR-5 ovarian
  GI50: 84.4 µM
  TGI: > 100 µM
OVCAR-8 ovarian
  GI50: 7.25 µM
  TGI: > 100 µM
PC-3 prostate
  GI50: 0.531 µM
  TGI: > 100 µM
RPMI-8226 leukemia
  GI50: 9.04 µM
  TGI: > 100 µM
RXF 393 renal
  GI50: 52.8 µM
  TGI: > 100 µM
SF-268 CNS
  GI50: 0.759 µM
  TGI: > 100 µM
SF-295 CNS
  GI50: 0.561 µM
  TGI: > 100 µM
SF-539 CNS
  GI50: 5.32 µM
  TGI: > 100 µM
SK-MEL-2 melanoma
  GI50: > 100 µM
  TGI: > 100 µM
SK-MEL-28 melanoma
  GI50: 30.1 µM
  TGI: > 100 µM
SK-MEL-5 melanoma
  GI50: 1.36 µM
  TGI: > 100 µM
SK-OV-3 ovarian
  GI50: 69.8 µM
  TGI: > 100 µM
SN12C renal
  GI50: 6.9 µM
  TGI: > 100 µM
SNB-19 CNS
  GI50: 19.1 µM
  TGI: > 100 µM
SNB-75 CNS
  GI50: 10.3 µM
  TGI: > 100 µM
SR leukemia
  GI50: 0.568 µM
  TGI: > 100 µM
SW-620 colon
  GI50: 0.714 µM
  TGI: > 100 µM
T-47D breast
  GI50: > 100 µM
  TGI: > 100 µM
TK-10 renal
  GI50: > 100 µM
  TGI: > 100 µM
U251 CNS
  GI50: 1.16 µM
  TGI: > 100 µM
UACC-257 melanoma
  GI50: > 100 µM
  TGI: > 100 µM
UACC-62 melanoma
  GI50: 4.74 µM
  TGI: > 100 µM
UO-31 renal
  GI50: > 100 µM
  TGI: > 100 µM
